Test results published in publication PMC6792352, “Limited Chemical Structural Diversity Found to Modulate Thyroid Hormone Receptor in the Tox21 Chemical Library” (Environmental Health Perspectives, 2019).
Structures can show the parent of a compound that is named as a salt.

Assay: in vitro
Details: rat, gh3-tre-luc cells

| Compound | CC50 at 24 h (AC50 (uM) modified / 1000) [µM] | also measured |
| --- | --- | --- |
| CCc1c(C(=O)NN2CCCCC2)nn(-c2ccc(Cl)cc2Cl)c1-c1ccc(Br)cc1 [Surinabant] | 12.3 |  |
| CCCC(=O)Nc1ncnc2c1ncn2[C@@H]1O[C@@H]2COP(=O)(O)O[C@H]2[C@H]1OC(=O)CCC [Bucladesine] | > 50 |  |
| C=CC(N)CCC(=O)O (stereo not drawn) [Vigabatrin] | > 50 |  |
| CN1CCN(CCCN2c3ccccc3Sc3ccccc32)CC1 [Perazine] | 16.5 |  |
| CCCCc1oc2ccc(NS(C)(=O)=O)cc2c1C(=O)c1ccc(OCCCN(CCCC)CCCC)cc1 [Dronedarone] | 9.94 |  |
| COP(=S)(OC)Oc1nc(Cl)c(Cl)cc1Cl [Chlorpyrifos-methyl] |  | CC50 at 24 h (AC50 (uM) modified / 1000, Tox21_110001=Tox21_300700, viability, 1 nM T3 present, 24 h): > 90 µM |
| CCCCCc1ccc(Cl)cc1 | > 90 |  |
| N#CC1(O)CCCCC1 [Cyclohexanone cyanohydrin] | > 90 |  |
| COP(=O)(OC)OC(=CCl)c1cc(Cl)c(Cl)cc1Cl [Tetrachlorovinphos] |  | CC50 at 24 h (AC50 (uM) modified / 1000, Tox21_110001=Tox21_200092, viability, 1 nM T3 present, 24 h): > 100 µM |
| CCCCCc1ccco1 [2-Pentylfuran] | > 60 |  |
| C=C[Si](OCCOC)(OCCOC)OCCOC | > 90 |  |
| CC(CO)CO [2-Methylpropane-1,3-diol] | > 100 |  |
| COc1cccc2c1C(=O)c1c(O)c3c(c(O)c1C2=O)C[C@@](O)(C(=O)CO)C[C@@H]3O[C@H]1C[C@H](N)[C@H](O[C@@H]2CCCCO2)[C@H](C)O1 [Pirarubicin] | 1.64 |  |
| CC1CCC(C(C)(C)S)C(=O)C1 (stereo not drawn) [p-Mentha-8-thiol-3-one] | > 90 |  |
| N=C(N)NCC1COC2(CCCCC2)O1 (stereo not drawn) [Guanadrel sulfate] | > 20 |  |
| Cc1ccc(N=Nc2c(O)c(C(=O)O)cc3ccccc23)c(S(=O)(=O)O)c1 [D&C Red No. 7] | 27.6 |  |
| C=C[C@]1(C)C[C@@H](OC(=O)CO)[C@]2(C)[C@H](C)CC[C@]3(CCC(=O)[C@H]32)[C@@H](C)[C@@H]1O [Pleuromutilin] | > 50 |  |
| NS(=O)(=O)c1cc2c(cc1C(F)(F)F)NCNS2(=O)=O [Hydroflumethiazide] | > 20 |  |
| O=C(c1ccc(Cl)cc1)c1ccc(Cl)cc1 [4,4'-Dichlorobenzophenone] | > 90 |  |
| CCCCCCCCCCO[C@@H]1O[C@H](CO)[C@@H](O)[C@H](O)[C@H]1O [Decyl beta-D-glucopyranoside] | > 90 |  |
| CC(C)(C#N)Nc1nc(Cl)nc(NC2CC2)n1 [Procyazine] | > 90 |  |
| Cc1cc(CC(=O)O)n(C)c1C(=O)c1ccc(Cl)cc1 [Sodium zomepirac] | > 90 |  |
| C[C@]1(O)CC[C@H]2[C@@H]3CCC4=CC(=O)CC[C@]4(C)[C@@]3(F)[C@@H](O)C[C@@]21C [Fluoxymestrone] |  | CC50 at 24 h (AC50 (uM) modified / 1000, Tox21_110001=Tox21_113158, viability, 1 nM T3 present, 24 h): > 50 µM; CC50 at 24 h (AC50 (uM) modified / 1000, Tox21_110001=Tox21_200854, viability, 1 nM T3 present, 24 h): > 90 µM |
| CC[C@H]1[C@@H]2C[C@H]3[C@@H]4N(C)c5ccccc5[C@]45C[C@@H]([C@H]2[C@H]5O)N3[C@@H]1O [Ajmaline] | > 20 |  |

| Compound | CC50 at 24 h (AC50 (uM) modified / 1000) [µM] | also measured |
| --- | --- | --- |
| CC(=O)OCC(=O)[C@@]12N=C(C)O[C@@H]1C[C@H]1[C@@H]3CCC4=CC(=O)C=C[C@]4(C)[C@H]3[C@@H](O)C[C@@]12C [Deflazacort] | > 90 |  |
| Nc1nc(N)nc(N)n1 [Melamine] | > 90 |  |
| CC(C)(O)c1ccc(CNC(=O)c2cccnc2Oc2ccc3nonc3c2)cc1 [CP-612372] | > 90 |  |
| CC[C@@]1(O)C(=O)OCc2c1cc1n(c2=O)Cc2cc3c(CN(C)C)c(O)ccc3nc2-1 [Topotecan hydrochloride] | > 50 |  |
| CC[N+](CC)(CC)CCC(O)(c1ccccc1)C1CCCCC1 (stereo not drawn) [Tridihexethyl chloride] | > 20 |  |
| CN(C)C(=O)Nc1ccc(Oc2ccc(Cl)cc2)cc1 [Chloroxuron] | > 90 |  |
| CN(C)CCN(Cc1ccc(Cl)cc1)c1ccccn1 [Chloropyramine hydrochloride] | 10.2 |  |
| CC(NCCC(c1ccccc1)c1ccccc1)c1ccccc1 (stereo not drawn) [Fendiline hydrochloride] | 6.49 |  |
| CCCC(=O)c1cc(O)c(O)cc1O [2',4',5'-Trihydroxybutyrophenone] | > 90 |  |
| COc1cccc([C@@]2(O)CCCC[C@@H]2CN(C)C)c1 [Tramadol hydrochloride] | > 50 |  |
| O=C(O)c1cc(Cl)ccc1Cl [2,5-Dichlorobenzoic acid] |  | CC50 at 24 h (AC50 (uM) modified / 1000, Tox21_110001=Tox21_200321, viability, 1 nM T3 present, 24 h): > 90 µM |
| N#CC1(N)CCCCC1 [1-Aminocyclohexanecarbonitrile] | > 90 |  |
| COc1ccc(/C=N/NC(=O)c2ccncc2)cc1OC [Verazide] | > 50 |  |
| O=C1c2ccccc2C(=O)C1C(=O)C(c1ccccc1)c1ccccc1 [Diphacinone] |  | CC50 at 24 h (AC50 (uM) modified / 1000, Tox21_110001=Tox21_111893, viability, 1 nM T3 present, 24 h): > 50 µM |
| N#CC(C#N)=Cc1cc(O)c(O)c(O)c1 [Tyrphostin 25] | 28.5 |  |
| OCC(O)CS (stereo not drawn) [1-Thioglycerol] | > 90 |  |
| CCC(C)N (stereo not drawn) [2-Butanamine] | > 90 |  |
| COCCOCCOCCO [2-[2-(2-Methoxyethoxy)ethoxy]ethanol] | > 90 |  |
| C=CCCCCCCCCCCCCCC [1-Hexadecene] | > 20 |  |
| CCC(=O)c1c(O)cc(O)cc1O [Flopropione] | > 50 |  |
| CC(CC(=O)O)CC(C)(C)C (stereo not drawn) [3,5,5-Trimethylhexanoic acid] | > 90 |  |
| [O-][n+]1cccc(CO)c1 [Mepiroxol] | > 50 |  |
| CCOc1ccc2nc(S(N)(=O)=O)sc2c1 [Ethoxzolamide] | > 50 |  |
| CC1CCN(CCCC(=O)c2ccc(F)cc2)CC1 [Methylperone] | > 50 |  |

| Compound | CC50 at 24 h (AC50 (uM) modified / 1000) [µM] | also measured |
| --- | --- | --- |
| Nc1ccc(N=Nc2ccc(-c3ccc(N=Nc4c(S(=O)(=O)O)cc5cc(S(=O)(=O)O)c(N=Nc6ccccc6)c(O)c5c4N)cc3)cc2)c(N)c1 [C.I. Direct Black 38] |  | CC50 at 24 h (AC50 (uM) modified / 1000, Tox21_110001=Tox21_302342, viability, 1 nM T3 present, 24 h): > 60 µM |
| C[N+](C)(C)CCCCCCCCCC[N+](C)(C)C [Decamethonium bromide] | > 50 |  |
| CNC(=O)NC [N,N'-Dimethylurea] | > 90 |  |
| CCC[N+]1(C)CCCC1 [1-Methyl-1-propylpyrrolidinium bromide] | > 90 |  |
| O=C(OCC1CO1)C1CCCCC1C(=O)OCC1CO1 (stereo not drawn) [1,2-Cyclohexanedicarboxylic acid, bis(oxiranylmethyl) ester] | 44.7 |  |
| O=c1nn[nH]c2ccccc12 [1,2,3-Benzotriazin-4(1H)-one] | > 90 |  |
| COC(=O)Nc1nc2ccc(C(=O)c3cccs3)cc2[nH]1 [Nocodazole] | 0.337 |  |
| C=CCCCCCCC=C [1,9-Decadiene] | > 90 |  |
| Cc1ccc(/C(=C\CN2CCCC2)c2ccccn2)cc1 [Triprolidine hydrochloride monohydrate] | 58.4 |  |
| NC(=O)CC[C@@H]1NC(=O)[C@H](Cc2ccccc2)NC(=O)[C@H](Cc2ccc(O)cc2)NC(=O)[C@@H](N)CSSC[C@@H](C(=O)N2CCC[C@H]2C(=O)N[C@@H](CCCN=C(N)N)C(=O)NCC(N)=O)NC(=O)[C@H](CC(N)=O)NC1=O [Argipressin acetate] | > 50 |  |
| Oc1ccc2ccc3cccc4ccc1c2c34 [1-Hydroxypyrene] | > 90 |  |
| O=C(O)c1cc(C(=O)O)cc(S(=O)(=O)O)c1 [Sodium 5-sulfoisophthalate] | > 90 |  |
| O=C(NC1CCN(CCc2c[nH]c3ccccc23)CC1)c1ccccc1 [Indoramin hydrochloride] | 22.2 |  |
| COCC(=O)N(c1c(C)cccc1C)C(C)C(=O)OC (stereo not drawn) [Metalaxyl] | > 90 |  |
| O=[N+]([O-])c1ccc(Cl)cc1Cl [2,4-Dichloronitrobenzene] | > 90 |  |
| Oc1cc(Cl)c(Cl)cc1Cl [2,4,5-Trichlorophenol] |  | CC50 at 24 h (AC50 (uM) modified / 1000, Tox21_110001=Tox21_111100, viability, 1 nM T3 present, 24 h): > 50 µM; CC50 at 24 h (AC50 (uM) modified / 1000, Tox21_110001=Tox21_201545, viability, 1 nM T3 present, 24 h): > 90 µM |
| Nc1nc(-c2ccccc2)cs1 [2-Amino-4-phenylthiazole hydrobromide hydrate] | > 90 |  |
| O=[N+]([O-])c1cc(C(F)(F)F)c(Cl)c([N+](=O)[O-])c1Nc1ncc(C(F)(F)F)cc1Cl [Fluazinam] | 4.25 |  |
| O=c1[nH]c2ccccc2c(=O)o1 [2H-3,1-Benzoxazine-2,4(1H)-dione] |  | CC50 at 24 h (AC50 (uM) modified / 1000, Tox21_110001=Tox21_201325, viability, 1 nM T3 present, 24 h): > 90 µM |
| CCCCCCCCCCCCCCCC(=O)OC[C@@H](O)[C@H]1OC[C@H](O)[C@H]1O [Sorbitan monohexadecanoate] | > 50 |  |
| O=C(O)[C@H](O)[C@@H](O)C(=O)O [L-Tartaric acid] | > 90 |  |
| CCCOCCOCCO [2-(2-Propoxyethoxy)ethanol] | > 90 |  |
